Structures can show the parent of a compound that is named as a salt.
Biological target: IRE1α (Homo sapiens (Human), UniProt O75460, D688N)
Test: IRE1α TR-FRET competition binding assay (IRE1α HTRF)
Conditions: TR-FRET competition binding to kinase domain of IRE1α
Summary of the method: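 Competition of compounds against an Alexa fluor 647 ATP-site probe (2 nM final) for the His-tagged kinase domain (0.25 nM final), detected via 2 nM Eu anti-His antibody by TR-FRET, 665 and 615 nm emission. Protein–antibody premix 1 h, 4° C; reaction 1 h, room temperature, pH 7.5 HEPES buffer.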

Chain of IRE1α (O75460 547-977 D688N): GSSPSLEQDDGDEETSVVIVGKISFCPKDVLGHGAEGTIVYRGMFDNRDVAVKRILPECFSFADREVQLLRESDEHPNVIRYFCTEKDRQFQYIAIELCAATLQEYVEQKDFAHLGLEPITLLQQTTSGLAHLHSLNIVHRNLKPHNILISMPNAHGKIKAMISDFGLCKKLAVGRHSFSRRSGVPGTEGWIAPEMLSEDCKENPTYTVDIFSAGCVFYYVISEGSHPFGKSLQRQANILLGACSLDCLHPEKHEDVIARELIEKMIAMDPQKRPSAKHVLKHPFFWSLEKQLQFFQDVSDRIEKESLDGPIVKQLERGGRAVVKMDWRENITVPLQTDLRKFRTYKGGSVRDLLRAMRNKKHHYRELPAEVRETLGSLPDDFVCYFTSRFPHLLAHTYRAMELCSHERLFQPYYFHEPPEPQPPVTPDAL

`CC(C)n1c(=O)c(-c2cc(F)c(NC(=O)C3CC3)c(F)c2F)cc2cnc(N[C@H]3CC[C@H](N(C)C)CC3)nc21` [Compound 37, N-(4-(2-(((1r,4r)-4-(Dimethylamino)cyclohexyl)amino)-8-isopropyl-7-oxo-7,8-dihydropyrido[2,3-d]pyrimidin-6-yl)-2,3,6-trifluorophenyl)cyclopropanecarboxamide] gave an IC50 of 1400 pM.
Work on `CC(C)n1c(=O)c(-c2cc(F)c(NS(=O)(=O)Cc3ccn(C)n3)c(F)c2F)cc2cnc(N[C@@H]3CNC[C@@H](F)C3)nc21` [Compound 38, 1-(1-Methyl-1H-pyrazol-3-yl)-N-(2,3,6-trifluoro-4-(2-(((3S,5S)-5-fluoropiperidin-3-yl)amino)-8-isopropyl-7-oxo-7,8-dihydropyrido[2,3-d]pyrimidin-6-yl)phenyl)methanesulfonamide] yielded an IC50 of 390 pM.
For `CCn1c(=O)c(-c2cc(F)c(NS(=O)(=O)Cc3cccc(C(F)(F)F)c3)c(F)c2F)cc2cnc(N[C@@H]3CNC[C@@H](F)C3)nc21` [Compound 39, N-(4-(8-Ethyl-2-(((3S,5S)-5-fluoropiperidin-3-yl)amino)-7-oxo-7,8-dihydropyrido[2,3-d]pyrimidin-6-yl)-2,3,6-trifluorophenyl)-1-(3-(trifluoromethyl)phenyl)methanesulfonamide], the IC50 was 400 pM.
`O=c1c(-c2ccc(NS(=O)(=O)Cc3ccccc3)c(F)c2F)cc2cnc(N[C@@H]3CNC[C@@H](F)C3)nc2n1CC(F)(F)F` [Compound 40, N-(2,3-Difluoro-4-(2-(((3S,5S)-5-fluoropiperidin-3-yl)amino)-7-oxo-8-(2,2,2-trifluoroethyl)-7,8-dihydropyrido[2,3-d]pyrimidin-6-yl)phenyl)-1-phenylmethanesulfonamide] was tested, and the IC50 was 1700 pM.
`CCC1CCN(c2ccc(-c3cc4cnc(N[C@@H]5CNC[C@@H](F)C5)nc4n(CC)c3=O)c(F)c2F)C1=O` (stereo partly drawn) [Compound 41, 8-Ethyl-6-(4-(3-ethyl-2-oxopyrrolidin-1-yl)-2,3-difluorophenyl)-2-(((3S,5S)-5-fluoropiperidin-3-yl)amino)pyrido[2,3-d]pyrimidin-7(8H)-one] showed an IC50 of 87000 pM.
Work on `CC(n1c(=O)c(-c2ccc(NS(=O)(=O)Cc3ccccc3)c(F)c2F)cc2cnc(N[C@@H]3CNC[C@@H](F)C3)nc21)C(F)(F)F` (stereo partly drawn) [Compound 42, N-(2,3-difluoro-4-(2-(((3S,5S)-5-fluoropiperidin-3-yl)amino)-7-oxo-8-(1,1,1-trifluoropropan-2-yl)-7,8-dihydropyrido[2,3-d]pyrimidin-6-yl)phenyl)-1-phenylmethanesulfonamide trifluoroacetate salt] yielded an IC50 of 3600 pM.
`CC(C)n1c(=O)c(-c2ccc(NS(=O)(=O)Cc3ccccc3)c(F)c2F)nc2cnc(N[C@@H]3CNC[C@@H](F)C3)nc21` [Compound 43, N-(2,3-Difluoro-4-(2-(((3S,5S)-5-fluoropiperidin-3-yl)amino)-8-isopropyl-7-oxo-7,8-dihydropteridin-6-yl)phenyl)-1-phenylmethanesulfonamide] gave an IC50 of 710 pM.
With `CC(C)n1c(=O)c(-c2ccc(NS(=O)(=O)Cc3ccccc3)c(F)c2)nc2cnc(N[C@@H]3CNC[C@@H](F)C3)nc21` [Compound 44, N-(2-Fluoro-4-(2-(((3S,5S)-5-fluoropiperidin-3-yl)amino)-8-isopropyl-7-oxo-7,8-dihydropteridin-6-yl)phenyl)-1-phenylmethanesulfonamide] the IC50 was 280 pM.
For `CC(C)n1c(=O)c(-c2cc(F)c(NS(=O)(=O)Cc3ccccc3)c(F)c2)nc2cnc(N[C@@H]3CNC[C@@H](F)C3)nc21` [Compound 45, N-(2,6-Difluoro-4-(2-(((3S,5S)-5-fluoropiperidin-3-yl)amino)-8-isopropyl-7-oxo-7,8-dihydropteridin-6-yl)phenyl)-1-phenylmethanesulfonamide], the IC50 was 220 pM.
With `CC(C)n1c(=O)c(-c2cc(F)c(NS(=O)(=O)CCC(F)(F)F)c(F)c2)nc2cnc(N[C@@H]3CNC[C@@H](F)C3)nc21` [Compound 46, N-(2,6-Difluoro-4-(2-(((3S,5S)-5-fluoropiperidin-3-yl)amino)-8-isopropyl-7-oxo-7,8-dihydropteridin-6-yl)phenyl)-3,3,3-trifluoropropane-1-sulfonamide] the IC50 was 470 pM.
`CCn1c(=O)c(-c2cc(F)c(NS(=O)(=O)Cc3ccc(C#N)cc3)c(F)c2F)cc2cnc(N[C@@H]3CNC[C@@H](F)C3)nc21` [Compound 47, 1-(4-cyanophenyl)-N-(4-(8-ethyl-2-(((3S,5S)-5-fluoropiperidin-3-yl)amino)-7-oxo-7,8-dihydropyrido[2,3-d]pyrimidin-6-yl)-2,3,6-trifluorophenyl)methanesulfonamide] was tested, and the IC50 was 370 pM.
Work on `CCn1c(=O)c(-c2cc(F)c(NS(=O)(=O)CC3(F)CC3)c(F)c2F)cc2cnc(N[C@@H]3CNC[C@@H](F)C3)nc21` [Compound 48, N-(4-(8-ethyl-2-(((3S,5S)-5-fluoropiperidin-3-yl)amino)-7-oxo-7,8-dihydropyrido[2,3-d]pyrimidin-6-yl)-2,3,6-trifluorophenyl)-1-(1-fluorocyclopropyl)methanesulfonamide] yielded an IC50 of 28000 pM.
`CCn1c(=O)c(-c2cc(F)c(NS(=O)(=O)Cc3ccccn3)c(F)c2F)cc2cnc(N[C@@H]3CNC[C@@H](F)C3)nc21` [Compound 49, N-(4-(8-ethyl-2-(((3S,5S)-5-fluoropiperidin-3-yl)amino)-7-oxo-7,8-dihydropyrido[2,3-d]pyrimidin-6-yl)-2,3,6-trifluorophenyl)-1-(pyridin-2-yl)methanesulfonamide] showed an IC50 of 5000 pM.
For `CCn1c(=O)c(-c2cc(F)c(NS(=O)(=O)Cc3ccc(C(F)(F)F)cc3)c(F)c2F)cc2cnc(N[C@@H]3CNC[C@@H](F)C3)nc21` [Compound 50, N-(4-(8-ethyl-2-(((3S,5S)-5-fluoropiperidin-3-yl)amino)-7-oxo-7,8-dihydropyrido[2,3-d]pyrimidin-6-yl)-2,3,6-trifluorophenyl)-1-(4-(trifluoromethyl)phenyl)methanesulfonamide hydrochloride], the IC50 was 220 pM.
`CCn1c(=O)c(-c2cc(F)c(NS(=O)(=O)Cc3c(F)cccc3F)c(F)c2F)cc2cnc(N[C@@H]3CNC[C@@H](F)C3)nc21` [Compound 51, 1-(2,6-difluorophenyl)-N-(4-(8-ethyl-2-(((3S,5S)-5-fluoropiperidin-3-yl)amino)-7-oxo-7,8-dihydropyrido[2,3-d]pyrimidin-6-yl)-2,3,6-trifluorophenyl)methanesulfonamide] was tested, and the IC50 was 700 pM.
With `O=c1c(-c2ccc(NS(=O)(=O)Cc3ccccc3)c(F)c2F)cc2cnc(N[C@@H]3CNC[C@@H](F)C3)nc2n1CC1CC1` [Compound 52, N-(4-(8-(cyclopropylmethyl)-2-(((3S,5S)-5-fluoropiperidin-3-yl)amino)-7-oxo-7,8-dihydropyrido[2,3-d]pyrimidin-6-yl)-2,3-difluorophenyl)-1-phenylmethanesulfonamide trifluoroacetate salt] the IC50 was 800 pM.
`O=c1c(-c2ccc(NS(=O)(=O)Cc3ccccc3)c(F)c2F)cc2cnc(N[C@@H]3CNC[C@@H](F)C3)nc2n1CCF` [Compound 53, N-(2,3-Difluoro-4-(8-(2-fluoroethyl)-2-(((3S,5S)-5-fluoropiperidin-3-yl)amino)-7-oxo-7,8-dihydropyrido[2,3-d]pyrimidin-6-yl)phenyl)-1-phenylmethanesulfonamide] gave an IC50 of 710 pM.
In the case of `CC(C)n1c(=O)c(-c2cc(F)c(NS(=O)(=O)c3ccccc3)c(F)c2F)cc2cnc(N[C@@H]3CNC[C@@H](F)C3)nc21` [Compound 54, N-(2,3,6-Trifluoro-4-(2-(((3S,5S)-5-fluoropiperidin-3-yl)amino)-8-isopropyl-7-oxo-7,8-dihydropyrido[2,3-d]pyrimidin-6-yl)phenyl)benzenesulfonamide], the IC50 is reported as 340 pM.
In the case of `O=c1c(-c2cc(F)c(NS(=O)(=O)Cc3ccccc3)c(F)c2F)cc2cnc(N[C@@H]3CNC[C@@H](F)C3)nc2n1C1CC(F)(F)C1` [Compound 55, N-(4-(8-(3,3-Difluorocyclobutyl)-2-(((3S,5S)-5-fluoropiperidin-3-yl)amino)-7-oxo-7,8-dihydropyrido[2,3-d]pyrimidin-6-yl)-2,3,6-trifluorophenyl)-1-phenylmethanesulfonamide hydrochloride], the IC50 is reported as 420 pM.
`CC(C)n1c(=O)c(-c2cc(F)c(NS(=O)(=O)Cc3ccccc3)c(F)c2F)cc2cnc(N[C@H]3CC[C@H](N)CC3)nc21` [Compound 56, N-(4-(2-(((1r,4r)-4-Aminocyclohexyl)amino)-8-isopropyl-7-oxo-7,8-dihydropyrido[2,3-d]pyrimidin-6-yl)-2,3,6-trifluorophenyl)-1-phenylmethanesulfonamide] gave an IC50 of 170 pM.
`COc1ccc(CS(=O)(=O)Nc2c(F)cc(-c3cc4cnc(N[C@@H]5CNC[C@@H](F)C5)nc4n(C(C)C)c3=O)c(F)c2F)cc1` [Compound 57, 1-(4-Methoxyphenyl)-N-(2,3,6-trifluoro-4-(2-(((3S,5S)-5-fluoropiperidin-3-yl)amino)-8-isopropyl-7-oxo-7,8-dihydropyrido[2,3-d]pyrimidin-6-yl)phenyl)methanesulfonamide] was tested, and the IC50 was 140 pM.
With `CC1CC1C(=O)Nc1c(F)cc(-c2cc3cnc(N[C@H]4CC[C@H](N(C)C)CC4)nc3n(C(C)C)c2=O)c(F)c1F` (stereo partly drawn) [Compound 58, (1S,2R)—N-(4-(2-(((1r,4r)-4-(dimethylamino)cyclohexyl)amino)-8-isopropyl-7-oxo-7,8-dihydropyrido[2,3-d]pyrimidin-6-yl)-2,3,6-trifluorophenyl)-2-methylcyclopropane-1-carboxamide] the IC50 was 5700 pM.
Work on `CC(C)CC(=O)Nc1c(F)cc(-c2cc3cnc(N[C@H]4CC[C@H](N(C)C)CC4)nc3n(C(C)C)c2=O)c(F)c1F` [Compound 59, N-(4-(2-(((1r,4r)-4-(Dimethylamino)cyclohexyl)amino)-8-isopropyl-7-oxo-7,8-dihydropyrido[2,3-d]pyrimidin-6-yl)-2,3,6-trifluorophenyl)-3-methylbutanamide] yielded an IC50 of 3200 pM.

Source: patent US12344603B2 (Genentech, Inc., priority 2020, dated 2025)
